According to patent publication US8455460B2, “Cosmetic composition containing one or more compounds of the β-(1,3)-glucuronan or β-(1,3)-glucoglucuronan type” (Greentech, priority 2007, dated 2013):

Columns and labels:
[1] = tested on: human fibroblasts; test: transcriptomic study on human fibroblasts cultivated in vitro in the absence or presence of the compounds; format: cell-based; conditions: cellular renewal
From the text: The biological activities of β-(1,3)-glucuronan compounds or of a mixture of β-(1,3)-glucoglucuronan compounds were screened by an original method of molecular biology (transcriptomic technique) and then detected by methodologies used conventionally in cosmetology.
This adipokine produced locally in the adipose tissue inhibits the activity of the enzyme lipoprotein lipase (LPL) thus preventing the transfer of fatty acids from the lipoproteins to the adipocytes, thus greatly reducing lipogenesis. At the same time, this adipokine activates the enzyme ATGL (adipose triglyceride lipase), present in the adipocytes, thus greatly increasing lipolysis and the release of fatty acids from the adipocytes.
In fact, the transitory induction (under the control of TFPI2 and of PDGFD) of the metalloproteinases (MMP) and the transitory inhibition (under the control of TFPI2) of HAPLN1, permit transitory, localized destabilization of the stressed site (requiring cicatrization) of the extracellular matrix, mainly by catabolic action on the collagen fibers. […]

[2] = clinical study on human volunteers, daily topical application of cream (cellulite, orange-peel skin); format: in vivo; conditions: cream containing 3%, daily topical application for 30 days, placebo 27%
From the text: The orange-peel skin effect is reduced in 53% of the volunteers (against 27% in the group of volunteers treated with a placebo).

[3] = chelation and sequestration of cationic ions, investigated by atomic absorption; format: physicochemical; conditions: Na+, Cu+, Cu2+, Ca2+, Mg2+, Zn2+, with stirring, compounds recovered and washed
From the text: The β-(1,3)-glucuronan compounds or the mixture of β-(1,3)-glucoglucuronan compounds are polyanionic molecules capable of chelating and of sequestering mono- and divalent cationic ions.

[4] = tested on: adipocytes; test: in-vitro study on adipocytes: density of fatty acids stored as triglycerides in the lipid vacuoles; format: cell-based; conditions: concentration of 0.5%

chelating and sequestering of mono- and divalent cationic ions [3]: chelate and sequester
Substance: β-(1,3)-D-polyglucuronic acid [β-(1,3)-glucuronan compound]
expression of TFPI2 [1]: overexpressed | expression of the genes EGR1, PTGS2, PDGFD, NPTX1 [1]: overexpression | volunteers in whom the orange-peel skin effect is reduced [2]: 53% | decrease in the density of fatty acids stored in the form of triglycerides in the lipid vacuoles of the adipocytes [4]: ~25%
